Data published in the kinase profiling compilation of Christmann-Franck et al. (2016).

Assays:
Assay in all cases: radiometric filter-binding kinase assay, Kinaseprofiler
PIM1 (human) = PIM1 (human) (UniProt P11309); conditions: ATP 90 µM
NTRK1 (human) = NTRK1 (human) (UniProt P04629); conditions: ATP 120 µM
ERBB4 (human) = ERBB4 (human) (UniProt Q15303); conditions: ATP 15 µM
PRKX (human) = PRKX (human) (UniProt P51817); conditions: ATP 200 µM
MAPK11 (human) = MAPK11 (human) (UniProt Q15759); conditions: ATP 45 µM
ACVR1B (human) = ACVR1B (human) (UniProt P36896); conditions: ATP 10 µM
STK4 (human) = STK4 (human) (UniProt Q13043); conditions: ATP 90 µM
STK33 (human) = STK33 (human) (UniProt Q9BYT3); conditions: ATP 155 µM
SRC (human) = SRC (human) (UniProt P12931); conditions: ATP 200 µM
MAP2K1 (human) = MAP2K1 (human) (UniProt Q02750); conditions: ATP 10 µM
TXK (human) = TXK (human) (UniProt P42681); conditions: ATP 200 µM
TLK2 (human) = TLK2 (human) (UniProt Q86UE8); conditions: ATP 10 µM
DCLK2 (human) = DCLK2 (human) (UniProt Q8N568); conditions: ATP 90 µM
STK24 (human) = STK24 (human) (UniProt Q9Y6E0); conditions: ATP 15 µM
CAMK2G (human) = CAMK2G (human) (UniProt Q13555); conditions: ATP 10 µM
SRPK1 (human) = SRPK1 (human) (UniProt Q96SB4); conditions: ATP 10 µM
HIPK1 (human) = HIPK1 (human) (UniProt Q86Z02); conditions: ATP 45 µM
VRK2 (human) = VRK2 (human) (UniProt Q86Y07); conditions: ATP 70 µM
MAPK14 (human) = MAPK14 (human) (UniProt Q16539); conditions: ATP 90 µM
ROCK2 (human) = ROCK2 (human) (UniProt O75116); conditions: ATP 15 µM
CSK (human) = CSK (human) (UniProt P41240); conditions: ATP 15 µM
CSNK2A2 (human) = CSNK2A2 (human) (UniProt P19784); conditions: ATP 10 µM
ULK2 (human) = ULK2 (human) (UniProt Q8IYT8); conditions: ATP 15 µM
MAP3K5 (human) = MAP3K5 (human) (UniProt Q99683); conditions: ATP 200 µM
GSG2 (human) = GSG2 (human) (UniProt Q8TF76); conditions: ATP 70 µM
HIPK3 (human) = HIPK3 (human) (UniProt Q9H422); conditions: ATP 15 µM
CDC42BPA (human) = CDC42BPA (human) (UniProt Q5VT25); conditions: ATP 45 µM
STK17A (human) = STK17A (human) (UniProt Q9UEE5); conditions: ATP 10 µM
CSNK1D (rat) = conditions: accession and sequence are those of the human protein
RPS6KA1 KD1 KD2 (human) = RPS6KA1 KD1 KD2 (human) (UniProt Q15418); conditions: ATP 45 µM
PRKCA (human) = PRKCA (human) (UniProt P17252); conditions: ATP 45 µM
EPHA3 (human) = EPHA3 (human) (UniProt P29320); conditions: ATP 120 µM
PRKCD (human) = PRKCD (human) (UniProt Q05655); conditions: ATP 15 µM

Sequence of CAMK2G (human) (Q13555 whole entry, looked up): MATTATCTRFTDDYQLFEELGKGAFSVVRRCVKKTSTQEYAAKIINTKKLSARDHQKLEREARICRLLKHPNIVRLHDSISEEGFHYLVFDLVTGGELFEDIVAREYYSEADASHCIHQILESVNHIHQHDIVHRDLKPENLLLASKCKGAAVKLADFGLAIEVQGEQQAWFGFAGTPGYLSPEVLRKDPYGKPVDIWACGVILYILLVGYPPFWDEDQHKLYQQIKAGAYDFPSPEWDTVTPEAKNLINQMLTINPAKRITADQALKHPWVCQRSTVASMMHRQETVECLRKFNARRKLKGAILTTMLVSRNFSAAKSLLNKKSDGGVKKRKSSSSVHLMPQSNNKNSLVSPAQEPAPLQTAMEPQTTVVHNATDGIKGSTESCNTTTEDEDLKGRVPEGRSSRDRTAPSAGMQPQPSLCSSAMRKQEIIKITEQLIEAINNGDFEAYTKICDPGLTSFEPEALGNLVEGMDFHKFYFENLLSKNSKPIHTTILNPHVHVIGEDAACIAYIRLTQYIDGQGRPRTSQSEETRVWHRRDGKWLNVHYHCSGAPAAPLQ
Sequence of HIPK3 (human) (Q9H422 whole entry, looked up): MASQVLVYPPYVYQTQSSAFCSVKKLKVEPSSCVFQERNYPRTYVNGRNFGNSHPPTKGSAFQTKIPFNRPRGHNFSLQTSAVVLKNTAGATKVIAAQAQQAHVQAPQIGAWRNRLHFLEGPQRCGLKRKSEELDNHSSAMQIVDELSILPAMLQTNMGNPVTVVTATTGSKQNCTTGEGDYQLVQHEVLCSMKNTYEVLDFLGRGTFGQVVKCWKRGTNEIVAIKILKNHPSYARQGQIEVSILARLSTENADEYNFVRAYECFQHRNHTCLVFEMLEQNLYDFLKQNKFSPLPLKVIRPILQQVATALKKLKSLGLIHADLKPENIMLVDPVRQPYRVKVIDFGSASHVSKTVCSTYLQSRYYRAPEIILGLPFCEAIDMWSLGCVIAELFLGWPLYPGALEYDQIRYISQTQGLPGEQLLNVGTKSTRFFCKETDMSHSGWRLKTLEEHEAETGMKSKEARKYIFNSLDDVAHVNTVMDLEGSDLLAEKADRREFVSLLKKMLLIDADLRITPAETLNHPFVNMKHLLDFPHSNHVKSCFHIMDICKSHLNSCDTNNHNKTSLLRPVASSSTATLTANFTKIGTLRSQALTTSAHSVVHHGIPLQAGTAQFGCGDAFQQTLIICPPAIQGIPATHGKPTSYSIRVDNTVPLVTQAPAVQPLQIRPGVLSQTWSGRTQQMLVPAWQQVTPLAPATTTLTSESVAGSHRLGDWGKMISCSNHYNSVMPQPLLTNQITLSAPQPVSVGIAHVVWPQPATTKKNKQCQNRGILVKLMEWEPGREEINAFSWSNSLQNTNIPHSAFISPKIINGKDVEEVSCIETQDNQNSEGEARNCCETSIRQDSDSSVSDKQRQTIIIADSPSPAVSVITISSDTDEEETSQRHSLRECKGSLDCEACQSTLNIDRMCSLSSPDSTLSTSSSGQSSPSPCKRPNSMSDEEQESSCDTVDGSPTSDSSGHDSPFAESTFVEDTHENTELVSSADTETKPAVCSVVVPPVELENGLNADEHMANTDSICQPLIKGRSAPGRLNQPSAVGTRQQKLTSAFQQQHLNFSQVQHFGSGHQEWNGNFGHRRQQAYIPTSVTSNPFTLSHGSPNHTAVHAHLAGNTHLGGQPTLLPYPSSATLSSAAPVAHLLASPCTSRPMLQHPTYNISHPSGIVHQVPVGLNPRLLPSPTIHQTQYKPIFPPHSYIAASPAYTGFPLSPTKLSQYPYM
Sequence of STK17A (human) (Q9UEE5 whole entry, looked up): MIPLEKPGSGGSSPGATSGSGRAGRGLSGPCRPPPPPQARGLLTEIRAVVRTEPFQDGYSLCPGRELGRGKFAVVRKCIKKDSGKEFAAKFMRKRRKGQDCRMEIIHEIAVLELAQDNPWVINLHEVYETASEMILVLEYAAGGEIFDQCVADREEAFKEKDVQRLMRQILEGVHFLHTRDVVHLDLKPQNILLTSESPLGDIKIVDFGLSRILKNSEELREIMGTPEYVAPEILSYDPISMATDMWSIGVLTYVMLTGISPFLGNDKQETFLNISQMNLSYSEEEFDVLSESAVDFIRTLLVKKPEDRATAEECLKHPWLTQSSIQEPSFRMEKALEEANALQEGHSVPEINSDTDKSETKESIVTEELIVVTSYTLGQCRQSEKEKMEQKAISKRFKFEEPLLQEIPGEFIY
Sequence of ROCK2 (human) (O75116 whole entry, looked up): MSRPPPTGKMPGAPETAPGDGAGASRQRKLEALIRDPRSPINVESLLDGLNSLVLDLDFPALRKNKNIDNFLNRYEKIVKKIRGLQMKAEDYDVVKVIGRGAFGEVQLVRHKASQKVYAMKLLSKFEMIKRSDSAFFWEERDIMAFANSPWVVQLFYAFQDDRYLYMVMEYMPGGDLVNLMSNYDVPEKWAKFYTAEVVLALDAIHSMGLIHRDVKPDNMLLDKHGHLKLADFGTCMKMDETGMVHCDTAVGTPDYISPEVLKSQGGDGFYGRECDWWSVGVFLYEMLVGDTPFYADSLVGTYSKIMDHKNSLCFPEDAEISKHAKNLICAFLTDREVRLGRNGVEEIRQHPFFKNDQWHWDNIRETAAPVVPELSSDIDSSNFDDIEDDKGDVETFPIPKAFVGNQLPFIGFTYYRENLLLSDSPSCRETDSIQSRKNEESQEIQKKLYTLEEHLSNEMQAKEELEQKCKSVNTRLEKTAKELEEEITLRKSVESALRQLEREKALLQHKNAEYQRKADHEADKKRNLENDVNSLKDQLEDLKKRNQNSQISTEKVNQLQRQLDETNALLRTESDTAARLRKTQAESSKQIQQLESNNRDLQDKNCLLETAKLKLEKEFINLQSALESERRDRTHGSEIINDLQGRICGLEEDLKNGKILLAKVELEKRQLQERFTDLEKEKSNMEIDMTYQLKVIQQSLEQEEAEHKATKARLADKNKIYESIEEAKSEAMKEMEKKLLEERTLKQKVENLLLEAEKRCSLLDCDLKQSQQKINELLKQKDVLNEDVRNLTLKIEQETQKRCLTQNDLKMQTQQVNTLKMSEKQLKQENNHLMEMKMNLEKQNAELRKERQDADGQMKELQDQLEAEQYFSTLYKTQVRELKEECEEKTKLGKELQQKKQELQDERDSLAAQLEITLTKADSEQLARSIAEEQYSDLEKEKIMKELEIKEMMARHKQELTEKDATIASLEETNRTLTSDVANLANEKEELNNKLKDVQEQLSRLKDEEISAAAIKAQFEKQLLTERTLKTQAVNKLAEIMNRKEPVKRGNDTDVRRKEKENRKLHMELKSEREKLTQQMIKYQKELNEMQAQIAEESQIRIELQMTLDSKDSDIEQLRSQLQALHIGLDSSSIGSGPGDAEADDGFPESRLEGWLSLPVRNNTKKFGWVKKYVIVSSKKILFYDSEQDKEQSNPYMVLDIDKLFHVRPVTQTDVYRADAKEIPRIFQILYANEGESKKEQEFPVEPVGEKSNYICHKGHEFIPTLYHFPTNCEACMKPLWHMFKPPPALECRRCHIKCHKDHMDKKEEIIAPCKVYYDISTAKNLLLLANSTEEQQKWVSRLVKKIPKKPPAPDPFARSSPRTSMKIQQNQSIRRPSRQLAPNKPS
Sequence of ULK2 (human) (Q8IYT8 whole entry, looked up): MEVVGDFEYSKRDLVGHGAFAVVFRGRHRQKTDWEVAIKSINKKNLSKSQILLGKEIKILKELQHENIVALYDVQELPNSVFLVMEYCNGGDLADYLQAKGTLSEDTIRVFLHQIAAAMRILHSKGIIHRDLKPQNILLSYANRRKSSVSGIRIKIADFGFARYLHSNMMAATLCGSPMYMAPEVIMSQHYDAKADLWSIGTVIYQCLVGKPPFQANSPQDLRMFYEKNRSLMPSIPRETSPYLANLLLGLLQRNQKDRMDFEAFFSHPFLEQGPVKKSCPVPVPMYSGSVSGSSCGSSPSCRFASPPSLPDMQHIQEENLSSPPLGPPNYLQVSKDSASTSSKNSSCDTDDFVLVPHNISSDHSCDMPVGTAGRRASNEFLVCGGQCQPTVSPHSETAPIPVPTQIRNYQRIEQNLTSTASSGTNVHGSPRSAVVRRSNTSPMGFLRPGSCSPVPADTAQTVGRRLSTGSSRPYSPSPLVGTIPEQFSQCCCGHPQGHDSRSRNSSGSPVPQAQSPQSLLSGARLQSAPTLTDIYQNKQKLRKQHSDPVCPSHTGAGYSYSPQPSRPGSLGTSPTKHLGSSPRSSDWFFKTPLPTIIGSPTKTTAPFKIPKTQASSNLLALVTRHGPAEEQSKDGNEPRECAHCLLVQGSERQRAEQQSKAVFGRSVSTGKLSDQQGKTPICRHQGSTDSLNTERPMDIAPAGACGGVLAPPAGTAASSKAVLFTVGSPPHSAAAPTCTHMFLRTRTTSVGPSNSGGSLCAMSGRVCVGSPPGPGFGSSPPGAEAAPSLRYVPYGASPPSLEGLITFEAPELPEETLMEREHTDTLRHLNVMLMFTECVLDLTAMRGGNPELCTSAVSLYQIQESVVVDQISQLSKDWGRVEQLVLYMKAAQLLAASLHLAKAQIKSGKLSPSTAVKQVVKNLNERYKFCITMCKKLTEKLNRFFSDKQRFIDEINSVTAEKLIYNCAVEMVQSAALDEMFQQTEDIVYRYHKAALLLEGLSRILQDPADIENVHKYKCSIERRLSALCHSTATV
Sequence of PRKX (human) (P51817 whole entry, looked up): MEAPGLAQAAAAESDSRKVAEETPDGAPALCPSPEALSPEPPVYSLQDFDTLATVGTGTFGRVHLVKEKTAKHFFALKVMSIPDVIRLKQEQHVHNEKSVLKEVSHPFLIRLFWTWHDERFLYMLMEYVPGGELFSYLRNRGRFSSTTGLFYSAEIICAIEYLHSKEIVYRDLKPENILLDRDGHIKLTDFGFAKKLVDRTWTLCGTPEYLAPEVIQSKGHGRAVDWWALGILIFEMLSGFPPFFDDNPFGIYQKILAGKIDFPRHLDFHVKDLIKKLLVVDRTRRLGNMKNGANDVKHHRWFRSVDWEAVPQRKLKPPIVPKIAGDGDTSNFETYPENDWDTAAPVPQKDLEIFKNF

O=C1c2ccccc2-c2n[nH]c3cccc1c23
residual activity (PIM1 (human); compound 1.0 µM): 68%
residual activity (PIM1 (human); compound 10.0 µM): 18%
residual activity (NTRK1 (human); compound 1.0 µM): 10%
residual activity (NTRK1 (human); compound 10.0 µM): -1%
residual activity (ERBB4 (human); compound 1.0 µM): 104%
residual activity (ERBB4 (human); compound 10.0 µM): 97%
residual activity (PRKX (human); compound 1.0 µM): 86%
residual activity (PRKX (human); compound 10.0 µM): 70%
residual activity (MAPK11 (human); compound 1.0 µM): 88%
residual activity (MAPK11 (human); compound 10.0 µM): 79%
residual activity (ACVR1B (human); compound 1.0 µM): 86%
residual activity (ACVR1B (human); compound 10.0 µM): 84%
residual activity (STK4 (human); compound 1.0 µM): 52%
residual activity (STK4 (human); compound 10.0 µM): 21%
residual activity (STK33 (human); compound 1.0 µM): 61%
residual activity (STK33 (human); compound 10.0 µM): 16%
residual activity (SRC (human); compound 1.0 µM): 89%
residual activity (SRC (human); compound 10.0 µM): 64%
residual activity (MAP2K1 (human); compound 1.0 µM): 75%
residual activity (MAP2K1 (human); compound 10.0 µM): 50%
residual activity (TXK (human); compound 1.0 µM): 58%
residual activity (TXK (human); compound 10.0 µM): 23%
residual activity (TLK2 (human); compound 1.0 µM): 71%
residual activity (TLK2 (human); compound 10.0 µM): 38%
residual activity (DCLK2 (human); compound 1.0 µM): 116%
residual activity (DCLK2 (human); compound 10.0 µM): 51%
residual activity (STK24 (human); compound 1.0 µM): 57%
residual activity (STK24 (human); compound 10.0 µM): 21%
residual activity (CAMK2G (human); compound 1.0 µM): 37%
residual activity (CAMK2G (human); compound 10.0 µM): 8%
residual activity (SRPK1 (human); compound 1.0 µM): 98%
residual activity (SRPK1 (human); compound 10.0 µM): 87%
residual activity (HIPK1 (human); compound 1.0 µM): 93%
residual activity (HIPK1 (human); compound 10.0 µM): 62%
residual activity (VRK2 (human); compound 1.0 µM): 78%
residual activity (VRK2 (human); compound 10.0 µM): 36%
residual activity (MAPK14 (human); compound 1.0 µM): 96%
residual activity (MAPK14 (human); compound 10.0 µM): 85%
residual activity (ROCK2 (human); compound 1.0 µM): 74%
residual activity (ROCK2 (human); compound 10.0 µM): 39%
residual activity (CSK (human); compound 1.0 µM): 105%
residual activity (CSK (human); compound 10.0 µM): 93%
residual activity (CSNK2A2 (human); compound 1.0 µM): 59%
residual activity (CSNK2A2 (human); compound 10.0 µM): 18%
residual activity (ULK2 (human); compound 1.0 µM): 90%
residual activity (ULK2 (human); compound 10.0 µM): 45%
residual activity (MAP3K5 (human); compound 1.0 µM): 36%
residual activity (MAP3K5 (human); compound 10.0 µM): 5%
residual activity (GSG2 (human); compound 1.0 µM): 10%
residual activity (GSG2 (human); compound 10.0 µM): -1%
residual activity (HIPK3 (human); compound 1.0 µM): 73%
residual activity (HIPK3 (human); compound 10.0 µM): 19%
residual activity (CDC42BPA (human); compound 1.0 µM): 115%
residual activity (CDC42BPA (human); compound 10.0 µM): 116%
residual activity (STK17A (human); compound 1.0 µM): 6%
residual activity (STK17A (human); compound 10.0 µM): 2%
residual activity (CSNK1D (rat); compound 1.0 µM): 5%
residual activity (CSNK1D (rat); compound 10.0 µM): 1%
residual activity (RPS6KA1 KD1 KD2 (human); compound 1.0 µM): 86%
residual activity (RPS6KA1 KD1 KD2 (human); compound 10.0 µM): 64%
residual activity (PRKCA (human); compound 1.0 µM): 98%
residual activity (PRKCA (human); compound 10.0 µM): 73%
residual activity (EPHA3 (human); compound 1.0 µM): 75%
residual activity (EPHA3 (human); compound 10.0 µM): 48%
residual activity (PRKCD (human); compound 1.0 µM): 99%
residual activity (PRKCD (human); compound 10.0 µM): 71%
